Source: the NIST ThermoML archive (doi:10.1016/j.jct.2017.03.026)
± gives the expanded uncertainty stated by the source.

Conditions: 101.33 kPa, Crystal, Small (less than 1 g) adiabatic calorimetry

## O.O.O.O.O.O=S(=O)([O-])[O-].[Cu+2] [copper(II) sulfate pentahydrate]
5 K
  molar entropy: 1.205 ± 0.092 J/K/mol
10 K
  molar entropy: 1.688 ± 0.11 J/K/mol
15 K
  molar entropy: 2.669 ± 0.12 J/K/mol
20 K
  molar entropy: 4.429 ± 0.15 J/K/mol
25 K
  molar entropy: 6.984 ± 0.19 J/K/mol
30 K
  molar entropy: 10.25 ± 0.25 J/K/mol
35 K
  molar entropy: 14.13 ± 0.29 J/K/mol
40 K
  molar entropy: 18.55 ± 0.33 J/K/mol
45 K
  molar entropy: 23.35 ± 0.38 J/K/mol
50 K
  molar entropy: 28.39 ± 0.42 J/K/mol
55 K
  molar entropy: 33.74 ± 0.46 J/K/mol
60 K
  molar entropy: 39.25 ± 0.5 J/K/mol
65 K
  molar entropy: 44.9 ± 0.54 J/K/mol
70 K
  molar entropy: 50.64 ± 0.59 J/K/mol
75 K
  molar entropy: 56.43 ± 0.63 J/K/mol
80 K
  molar entropy: 62.26 ± 0.67 J/K/mol
85 K
  molar entropy: 68.09 ± 0.71 J/K/mol
90 K
  molar entropy: 73.92 ± 0.78 J/K/mol
95 K
  molar entropy: 79.73 ± 0.8 J/K/mol
100 K
  molar entropy: 85.52 ± 0.84 J/K/mol
110 K
  molar entropy: 97.04 ± 0.91 J/K/mol
120 K
  molar entropy: 108.5 ± 1 J/K/mol
130 K
  molar entropy: 119.8 ± 1 J/K/mol
140 K
  molar entropy: 131 ± 1.1 J/K/mol
150 K
  molar entropy: 142.1 ± 1.1 J/K/mol
160 K
  molar entropy: 153.1 ± 1.2 J/K/mol
170 K
  molar entropy: 164 ± 1.3 J/K/mol
180 K
  molar entropy: 174.7 ± 1.3 J/K/mol
190 K
  molar entropy: 185.4 ± 1.3 J/K/mol
200 K
  molar entropy: 196 ± 1.4 J/K/mol
210 K
  molar entropy: 206.5 ± 1.5 J/K/mol
220 K
  molar entropy: 216.9 ± 1.5 J/K/mol
230 K
  molar entropy: 227.2 ± 1.6 J/K/mol
240 K
  molar entropy: 237.5 ± 1.6 J/K/mol
250 K
  molar entropy: 247.6 ± 1.6 J/K/mol
260 K
  molar entropy: 257.7 ± 1.7 J/K/mol
270 K
  molar entropy: 267.6 ± 1.7 J/K/mol
273.15 K
  molar entropy: 270.7 ± 1.7 J/K/mol
280 K
  molar entropy: 277.5 ± 1.8 J/K/mol
290 K
  molar entropy: 287.3 ± 1.9 J/K/mol
298.15 K
  molar entropy: 295.2 ± 1.9 J/K/mol
300 K
  molar entropy: 297 ± 1.9 J/K/mol
310 K
  molar entropy: 306.6 ± 1.9 J/K/mol
320 K
  molar entropy: 316.1 ± 2 J/K/mol
